In US20170247336A1 (MERCK SHARP & DOHME CORP., priority 2014, published 2017):
pIC50: −log10 of the molar value. Structures can show the parent of a compound that is named as a salt.

These compounds were tested against T1, human HIF-PHD2 (Homo sapiens, UniProt Q9GZT9) (assay: HIF-PHD2 inhibition: hydroxylation of HIF-1α peptide, time resolved fluorescence). Settings: FLAG-tagged full length PHD2; 0.2 μM 2-oxoglutarate, 0.5 μM HIF-1α peptide.
T1 construct: FLAG-tagged full length PHD2 expressed in and purified from baculovirus-infected Sf9 cells; FLAG; made in house; host or cells: baculovirus-infected Sf9 cells
Format: biochemical
Description: To each well of a 384-well plate, 1 μL of test compounds in DMSO (final concentration ranging from 0.3 nM to 10 μM) were added into 20 μl of assay buffer (50 mM Tris pH 7.4/0.01% Tween-20/0.1 mg/ml bovine serum albumin/10 μM ferrous sulfate/1 mM sodium ascorbate/20 μg/ml catalase) containing 0.15 μg/ml FLAG-tagged full length PHD2 expressed in and purified from baculovirus-infected Sf9 cells. After a 5 min preincubation at room temperature, the enzymatic reactions were initiated by the addition of 4 μL of substrates {final concentrations of 0.2 μM 2-oxoglutarate and 0.5 μM HIF-1α peptide biotinyl-DLDLEMLAPYIPMDDDFQL (SEQ ID NO: 1)}. After incubation for 45 minutes at room temperature, the reactions were terminated by the addition of a 25 μL quench/detection mix to a final concentration of 1 mM ortho-phenanthroline, 0.1 mM EDTA, 0.5 nM anti-(His)6 LANCE reagent (Perkin-Elmer Life Sciences), 100 nM AF647-labeled streptavidin (Invitrogen), and 2 μg/ml (His)6-VHL complex {S. Tan Protein Expr. Purif. 21, 224-234 (2001)} and the signals were developed for 30 minutes at room temperature. The ratio of time resolved fluorescence signals at 665 and 620 nm was determined, and percent inhibition was calculated relative to the high control samples (DMSO treated) run in parallel, after background subtraction.

T1 sequence (Q9GZT9 whole entry): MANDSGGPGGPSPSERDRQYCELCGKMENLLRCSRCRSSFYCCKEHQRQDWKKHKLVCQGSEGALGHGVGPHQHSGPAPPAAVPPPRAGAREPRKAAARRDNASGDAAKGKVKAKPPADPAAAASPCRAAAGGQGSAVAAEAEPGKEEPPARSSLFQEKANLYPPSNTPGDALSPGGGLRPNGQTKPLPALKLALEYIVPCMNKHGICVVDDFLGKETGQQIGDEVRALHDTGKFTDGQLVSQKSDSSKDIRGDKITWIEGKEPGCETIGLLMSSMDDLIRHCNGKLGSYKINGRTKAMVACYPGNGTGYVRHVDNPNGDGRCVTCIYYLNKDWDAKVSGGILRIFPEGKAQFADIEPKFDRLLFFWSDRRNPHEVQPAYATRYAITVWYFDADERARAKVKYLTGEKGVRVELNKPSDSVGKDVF

| Structure (SMILES) | pIC50 |
| --- | --- |
| N#Cc1ccc(C(NC(=O)c2cnc(C(=O)NC[C@@H](O)C(=O)O)nc2O)c2ccccc2)cc1 (single isomer, unassigned) [Example 8] | 8.17 |
| N#Cc1ccc(C(NC(=O)c2cnc(C(=O)NC[C@@H](O)C(=O)O)nc2O)c2ccccc2)cc1 (single isomer, unassigned) [Example 9] | 7.57 |
| COc1ccc(C(NC(=O)c2cnc(C(=O)NCC(C)C(=O)O)nc2O)c2ccc(OC)cc2)cc1 (single isomer, unassigned) [Example 18, (R) or (S)-3-(5-((bis(4-methoxyphenyl)methyl)carbamoyl)-4-hydroxypyrimidine-2-carboxamido)-2-methylpropanoic acid] | 7.82 |
| CC(CNC(=O)c1ncc(C(=O)NC(C)(C)c2ccc(-c3cccc4cnccc34)cc2)c(O)n1)C(=O)O (single isomer, unassigned) [Example 21, (R) or (S)-2-((2-carboxypropyl)carbamoyl)-6-hydroxy-5-((2-(4-(isoquinolin-5-yl)phenyl)propan-2-yl)carbamoyl)pyrimidin-1-ium formate] | 8.32 |
| Cc1cc(C#N)ccc1-c1ccc(C(C)(C)NC(=O)c2cnc(C(=O)NCC(C)C(=O)O)nc2O)cc1 (single isomer, unassigned) [Example 23, (R) or (S)-3-(5-((2-(4′-cyano-2′-methyl-[1,1′-biphenyl]-4-yl)propan-2-yl)carbamoyl)-4-hydroxypyrimidine-2-carboxamido)-2-methylpropanoic acid] | 7.92 |
| CNc1ccc(C(NC(=O)c2cnc(C(=O)NCCC(=O)O)nc2O)c2ccc(OC)cc2)cn1 (single isomer, unassigned) [Example 34, (R) or (S)-3-(4-hydroxy-5-(((4-methoxyphenyl)(6-(methylamino)pyridin-3-yl)methyl)carbamoyl)pyrimidine-2-carboxamido)propanoic acid] | 9.24 |
| CC(O)(CNC(=O)c1ncc(C(=O)NC(c2ccccc2)c2ccccc2)c(O)n1)C(=O)O (stereo not drawn) [Example 3, 3-(5-(Benzhydrylcarbamoyl)-4-hydroxypyrimidine-2-carboxamido)-2-hydroxy-2-methylpropanoic acid] | 8.39 |
| O=C(NCC(O)C(=O)O)c1ncc(C(=O)NC(c2ccccc2)c2ccccc2)c(O)n1 (stereo not drawn) [Example 5, 3-(5-(benzhydrylcarbamoyl)-4-hydroxypyrimidine-2-carboxamido)-2-hydroxypropanoic acid] | 9.05 |
| COc1ccc([C@@H](NC(=O)c2cnc(C(=O)NC[C@@H](O)C(=O)O)nc2O)c2ccccc2)cc1 [Example 10, (R)-2-Hydroxy-3-(4-hydroxy-5-(((S)-(4-methoxyphenyl) (phenyl)methyl)carbamoyl)pyrimidine-2-carboxamido)propanoic acid] | 8.17 |
| CC(C)(NC(=O)c1cnc(C(=O)NC[C@@H](O)C(=O)O)nc1O)c1ccc(C(F)(F)F)cc1 [Example 11, (R)-2-hydroxy-3-(4-hydroxy-5-((2-(4-(trifluoromethyl)phenyl)propan-2-yl)carbamoyl)pyrimidine-2-carboxamido)propanoic acid] | 8.82 |
| COc1ccc([C@H](NC(=O)c2cnc(C(=O)NC[C@@H](O)C(=O)O)nc2O)c2ccccc2)cc1 [Example 12, (R)-2-hydroxy-3-(4-hydroxy-5-(((R)-(4-methoxyphenyl)(phenyl)methyl)carbamoyl)pyrimidine-2-carboxamido)propanoic acid] | 8.06 |
| CC(CNC(=O)c1ncc(C(=O)NC(c2ccc(Cl)cc2)c2ccc(Cl)cc2)c(O)n1)C(=O)O (stereo not drawn) [Example 13] | 8.31 |
| COc1ccc([C@@H](NC(=O)c2cnc(C(=O)NCCC(=O)O)nc2O)c2ccc(Cl)cc2)cc1 [Example 35, (R)-3-(5-(((4-chlorophenyl)(4-methoxyphenyl)methyl)carbamoyl)-4-hydroxypyrimidine-2-carboxamido)propanoic acid] | 9.05 |
| COc1ccc(C(NC(=O)c2cnc(C(=O)NCCC(=O)O)nc2O)c2ccccc2)cc1 (stereo not drawn) [Example 38] | 9.05 |
| O=C(O)CCNC(=O)c1ncc(C(=O)NC(c2ccc(Cl)cc2)c2ccc(C(F)(F)F)cc2)c(O)n1 (stereo not drawn) [Example 40, 3-(5-(((4-chlorophenyl)(4-(trifluoromethyl)phenyl)methyl)carbamoyl)-4-hydroxypyrimidine-2-carboxamido)propanoic acid] | 9.05 |

Other lines, results leading:

| pIC50 | Structure (SMILES) |
| --- | --- |
| 8.55 | COc1ccc(-c2ccc(C(C)(C)NC(=O)c3cnc(C(=O)NCC(C)C(=O)O)nc3O)cn2)cc1 (single isomer, unassigned) [Example 19, (R) or (S)-3-(4-hydroxy-5-((2-(6-(4-methoxyphenyl)pyridin-3-yl)propan-2-yl)carbamoyl)pyrimidine-2-carboxamido)-2-methylpropanoic acid] |
| 8.09 | CC(CNC(=O)c1ncc(C(=O)NC(C)(C)c2ccc(-c3ccc(C(F)(F)F)cc3)cc2)c(O)n1)C(=O)O (single isomer, unassigned) [Example 20, (R) or (S)-3-(4-hydroxy-5-((2-(4′-(trifluoromethyl)-[1,1′-biphenyl]-4-yl)propan-2-yl)carbamoyl)pyrimidine-2-carboxamido)-2-methylpropanoic acid] |
| 8.52 | CC(CNC(=O)c1ncc(C(=O)NC(C)(C)c2ccc(-c3cccnc3)cc2)c(O)n1)C(=O)O (single isomer, unassigned) [Example 22, (R) or (S)-2-((2-carboxypropyl)carbamoyl)-6-hydroxy-5-((2-(4-(pyridin-3-yl)phenyl)propan-2-yl)carbamoyl)pyrimidin-1-ium formate] |
| 8.32 | CC(CNC(=O)c1ncc(C(=O)NC(C)(C)c2ccc(-c3ccc(F)cc3)cc2)c(O)n1)C(=O)O (single isomer, unassigned) [Example 24, (R) or (S)-3-(5-((2-(4′-fluoro-[1,1′-biphenyl]-4-yl)propan-2-yl)carbamoyl)-4-hydroxypyrimidine-2-carboxamido)-2-methylpropanoic acid] |
| 7.89 | CC(CNC(=O)c1ncc(C(=O)NC(C)(C)c2ccc(-c3ccc(OC(F)(F)F)cc3)cc2)c(O)n1)C(=O)O (single isomer, unassigned) [Example 25, (R) or (S)-3-(4-hydroxy-5-((2-(4′-(trifluoromethoxy)-[1,1′-biphenyl]-4-yl)propan-2-yl)carbamoyl)pyrimidine-2-carboxamido)-2-methylpropanoic acid] |
| 8.47 | COc1ccc(-c2ccc(C(C)(C)NC(=O)c3cnc(C(=O)NCC(C)C(=O)O)nc3O)cc2)cn1 (single isomer, unassigned) [Example 26, (R) or (S)-2-((2-carboxypropyl)carbamoyl)-6-hydroxy-5-((2-(4-(6-methoxypyridin-3-yl)phenyl)propan-2-yl)carbamoyl)pyrimidin-1-ium chloride] |
| 8.24 | CC(CNC(=O)c1ncc(C(=O)NC(C)(C)c2ccc(-c3cc[nH]n3)cc2)c(O)n1)C(=O)O (single isomer, unassigned) [Example 27, (R) or (S)-5-((2-(4-(1H-pyrazol-3-yl)phenyl)propan-2-yl)carbamoyl)-2-((2-carboxypropyl)carbamoyl)-6-hydroxypyrimidin-1-ium formate] |
| 8.23 | CC(CNC(=O)c1ncc(C(=O)NC(C)(C)c2ccc(-c3ccc(Cl)cc3)cc2)c(O)n1)C(=O)O (single isomer, unassigned) [Example 28, (R) or (S)-3-(5-((2-(4′-chloro-[1,1′-biphenyl]-4-yl)propan-2-yl)carbamoyl)-4-hydroxypyrimidine-2-carboxamido)-2-methylpropanoic acid] |
| 7.89 | CC(CNC(=O)c1ncc(C(=O)NC2(c3ccc(-c4ccc(Cl)cc4)cc3)CC2)c(O)n1)C(=O)O (single isomer, unassigned) [Example 30, (R) or (S)-3-(5-((1-(4′-chloro-[1,1′-biphenyl]-4-yl)cyclopropyl)carbamoyl)-4-hydroxypyrimidine-2-carboxamido)-2-methylpropanoic acid] |
| 8.00 | CC(CNC(=O)c1ncc(C(=O)NC2(c3ccc(-c4cccc5cnccc45)cc3)CC2)c(O)n1)C(=O)O (single isomer, unassigned) [Example 31, (R) or (S)-2-((2-carboxypropyl)carbamoyl)-6-hydroxy-5-((1-(4-(isoquinolin-5-yl)phenyl)cyclopropyl)carbamoyl)pyrimidin-1-ium formate] |
| 7.92 | CC(CNC(=O)c1ncc(C(=O)NC2(c3ccc(-c4ccc(F)cc4)cc3)CC2)c(O)n1)C(=O)O (single isomer, unassigned) [Example 32, (R) or (S)-3-(5-((1-(4′-fluoro-[1,1′-biphenyl]-4-yl)cyclopropyl)carbamoyl)-4-hydroxypyrimidine-2-carboxamido)-2-methylpropanoic acid] |
| 8.37 | COc1ccc(-c2ccc(C3(NC(=O)c4cnc(C(=O)NCC(C)C(=O)O)nc4O)CC3)cc2)cn1 (single isomer, unassigned) [Example 33, (R) or (S)-2-((2-carboxypropyl)carbamoyl)-6-hydroxy-5-((1-(4-(6-methoxypyridin-3-yl)phenyl)cyclopropyl)carbamoyl)pyrimidin-1-ium chloride] |
